{"source": "patent US20060025458A1", "about": "“Alkylammonium compounds as antifungal and antitrypanosomal agents” (University of Connecticut, priority 2004, published 2006)", "key": {"[1]": {"tested_on": "P. falciparum", "details": "Ancelin and Vial, 1986; read-out: IC50, lethal to P. falciparum in vitro; cited from earlier work"}, "[2]": {"tested_on": "S. cerevisiae", "experiment": "Liquid growth inhibition assay of S. cerevisiae (OD600)", "format": "cell-based, Saccharomyces cerevisiae", "details": "for Inhibition of S. cerevisiae growth (in words): structure-activity comparison, Examples 2-4", "description": "Strains and Growth Conditions: Wild-type (BY4741: Mata his3Δ1 leu2Δ0 met15Δ0 ura3Δ0) and mutant (hnm1Δ, psd1Δ, cki1Δ, pem1Δ, ept1Δ, cpt1Δ, eki1Δ, psd2Δ, pct1Δ, ect1Δ, pem2Δ) S. cerevisiae strains used in this study were purchased from Research Genetics (Invitrogen, USA). These strains were grown on YPD (1% yeast extract, 2% dextrose and 2% peptone) or synthetic complete medium (SD, 1.7% yeast nitrogen base, 5% ammonium sulfate and 2% dextrose). The Nigerian strain of P. falciparum was propagated in human red blood cells at 4% hematocrit by the method of Trager and Jensen (1976). Plate growth assays were performed by growing wild-type and mutant yeast strains in YPD to mid-log phase. Cultures were serially diluted 1:10 starting with a density of 3×10^7 cells/ml. The growth of cells was monitored by spotting 3 μl of each dilution onto solid medium in the absence or presence of 5 μM of G25.\nTwenty-one analogs including first, second and third generation (E2a, E6, E9, E13, E24, F4, G2, G4, G5, G14, GI5, G25, H5, L1, L4, M34, M53, MS1, T3 and T4) compounds (provided by Dr. Henri Vial, City, Country) were tested (FIG. 4). The choice of the compounds was such that they represent all possible structural features introduced during the optimization process for enhancing antimalarial activity as determined using the combinatorial chemistry techniques.\nThe antimalarial drug G25 inhibits the growth of Saccharomyces cerevisiae. […] Growth inhibition was assessed by measuring the OD600 and comparing it to that of the wild-type strain grown under the same conditions in the absence of the compound. […] This IC50 value is in the range of the predicted intracellular concentration of G25 in P. falciparum due to the accumulative properties inside the infected erythrocytes."}, "[3]": {"tested_on": "promastigote form of L. major", "experiment": "Growth inhibition of Leishmania major promastigotes", "format": "cell-based", "details": "read-out: IC50 of choline analogs in Leishmania major, WT", "description": "For those drugs, IC50 values were determined."}, "[4]": {"tested_on": "C. albicans strain BWP17", "experiment": "Growth inhibition of C. albicans in vitro", "format": "cell-based, Candida albicans", "details": "read-out: IC50, C. albicans proliferation", "description": "G15, E24 and C35 inhibited at higher concentrations (>10 μM)."}, "[5]": {"tested_on": "choline transport in the wild-type strain of S. cerevisiae", "experiment": "[methyl-3H]-choline uptake in wild-type S. cerevisiae", "format": "cell-based, Saccharomyces cerevisiae", "details": "20-fold excess over [methyl-3H]-choline", "description": "(§1) Uptake Assays: Yeast strains were grown in synthetic complete medium supplemented as required to maintain cell growth to an optical density of 0.55-0.65 at 600 nm. Cells were harvested by centrifugation at 3,200×g for 10 min at 4° C., washed twice in cold PBS and resuspended in nitrogen-free medium (SD without ammonium sulfate). […] After 3 min incubation at 30° C. with shaking, transport was immediately stopped by filtration through Whatman GF/C glass microfiber paper. The filters were washed three times with 5 ml ice-cold PBS, air dried, and analyzed in a scintillation counter. For time course uptake, 3-4×10^7 cells were incubated at 30° C. in 1 ml of nitrogen-free medium in the presence of 25 nM [^3H]-T16 (69 Ci/mmol) for different time periods (1, 2, 3, 4, 5, 7, 10 and 15 min) after which 5 ml of cold PBS was added to stop the reaction. Kinetic parameters were determined after 4 min of incubation at 30° C. in the presence of [^3H]-T16 at concentrations ranging from 25 nM to 75 μM (69 Ci - 23 mCi/mol). The samples were centrifuged at 4° C. for 10 min at 1,200×g, the supernatants were discarded and the cells were then resuspended in 5 ml of cold PBS. The reaction was terminated by filtering the cell suspension through GF/C membranes that were pretreated with 15 ml of 0.05% polyethyleneimine (PEI). The filters were washed twice with 5 ml of cold PBS, air dried, and analyzed in a scintillation counter. The cellular accumulation ratio (CAR) was calculated as previously described for T16 and G25 (Biagini, et al., 2003; Wengelnik, et al., 2002)."}, "[6]": {"tested_on": "wild-type S. cerevisiae", "description": "as §1"}, "[7]": {"tested_on": "hnm1Δ S. cerevisiae strain lacking the choline transporter gene HNM1", "experiment": "[3H]-T16 transport in hnm1 deletion strain", "format": "cell-based, Saccharomyces cerevisiae", "details": "4 min, 30° C.", "description": "as §1, with “The samples were centrifuged at 4° C. for 10 min at 1,200×g, the supernatants were discarded and the cells were then resuspended in 5 ml of cold PBS. The reaction was terminated by filtering the cell suspension through GF/C membranes that were pretreated with 15 ml of 0.05% polyethyleneimine (PEI).” left out"}, "[8]": {"tested_on": "P. falciparum", "experiment": "P. falciparum growth in vitro (antimalarial activity)", "format": "cell-based, Plasmodium falciparum", "details": "predicted by QSAR and confirmed experimentally; read-out: IC50, in vitro anti-malarial activity"}, "[9]": {"tested_on": "P. falciparum-infected erythrocytes", "details": "after 3 h incubation; cited from earlier work"}, "[10]": {"details": "cited from earlier work"}}, "note": "Where two headings read alike, the source gives them in different places."}
{"molecule": "C[N+](C)(C)CCCCCCCCCC[N+](C)(C)C", "note": "[DMA, decamethonium]", "values": [{"measurement": "IC50", "setting": "[1]", "result": 1000, "unit": "nM"}]}
{"molecule": "CCCCCCCCCC[N+](C)(C)C", "note": "[DTMA, decyltrimethylammonium]", "values": [{"measurement": "IC50", "setting": "[1]", "result": 700, "unit": "nM"}]}
{"molecule": "CCCCCCCCCCCC[N+](C)(C)C.[Br-]", "note": "[E6]", "values": [{"measurement": "Inhibition of S. cerevisiae growth (in words)", "setting": "[2]", "result": "not an effective drug"}, {"measurement": "IC50, growth of S. cerevisiae", "setting": "[2]; wild-type W303 and BY4741, 10^5 cells/ml, YPD, 30° C., 24 h", "result": "high μM range"}, {"measurement": "IC50", "setting": "[3]", "result": 2150, "unit": "nM"}]}
{"molecule": "CCCCCCCCCCCCCCCCCC[N+](C)(C)C.[Cl-]", "note": "[E9]", "values": [{"measurement": "Inhibition of S. cerevisiae growth (in words)", "setting": "[2]", "result": "inhibited"}, {"measurement": "IC50", "setting": "[2]; wild-type W303 and BY4741, 10^5 cells/ml, YPD, 30° C., 24 h, read-out: IC50, growth of S. cerevisiae", "result": "250 to 500", "unit": "nM"}, {"measurement": "IC50", "setting": "[4]", "result": "~1000", "unit": "nM"}, {"measurement": "IC50", "setting": "[3]", "result": 110, "unit": "nM"}]}
{"molecule": "CCCCCCCCCCCC[N+](CCC)(CCC)CCC.[Br-]", "note": "[E13]", "values": [{"measurement": "Inhibition of S. cerevisiae growth (in words)", "setting": "[2]", "result": "no improvement"}, {"measurement": "IC50", "setting": "[3]", "result": 350, "unit": "nM"}]}
{"molecule": "CCCCCCCCCCCC[N+]1(C)CCCC1.[Br-]", "note": "[E24]", "values": [{"measurement": "IC50", "setting": "[3]", "result": 700, "unit": "nM"}]}
{"molecule": "CCCCCCCCCCCC[N+](C)(C)CCO", "note": "[F4]", "values": [{"measurement": "IC50", "setting": "[3]", "result": 4100, "unit": "nM"}]}
{"molecule": "C[N+](C)(CCO)CCCCCCCCCCCCCCCC[N+](C)(C)CCO.[Br-].[Br-]", "note": "[H5]", "values": [{"measurement": "Inhibition of S. cerevisiae growth (in words)", "setting": "[2]", "result": "better efficacy"}, {"measurement": "IC50", "setting": "[4]", "result": "~5000", "unit": "nM"}]}
{"molecule": "C[N+]1(C)CCOC(O)(c2ccc(-c3ccc(C4(O)C[N+](C)(C)CCO4)cc3)cc2)C1", "note": "(centres unmarked) [HC3, hemicholinium 3]", "values": [{"measurement": "IC50", "setting": "[1]", "result": 4000, "unit": "nM"}]}
{"molecule": "N=C(N)CCCCCCCCCCCCC(=N)N", "note": "[M34]", "values": [{"measurement": "IC50", "setting": "[3]", "result": 3570, "unit": "nM"}]}
{"molecule": "CCc1sc[n+](CCCCCCCCCCCC[n+]2csc(CC)c2C)c1C.[I-].[I-]", "note": "[T16, 1, 12-dodecanemethylene bis[4-methyl-5-ethylthiazolium]diiodide]", "values": [{"measurement": "IC50", "setting": "[2]; wild-type strain BY4741, 1×10^4 cells/ml, liquid medium, 30° C., 16 h, read-out: IC50, inhibition of yeast growth", "result": "~4000", "unit": "nM"}, {"measurement": "inhibition of choline transport", "setting": "[5]", "result": 26, "unit": "%"}, {"measurement": "cellular accumulation ratio (CAR) in yeast", "setting": "[6]", "result": "less than 7"}, {"measurement": "Km", "setting": "[6]; read-out: apparent Km of transport, wild-type, 4 min, 30° C., Lineweaver-Burk", "result": "5.05 ± 0.26", "unit": "µM"}, {"measurement": "time during which uptake was linear", "setting": "[6]; wild-type, 30° C., 25 nM", "result": 12, "unit": "min"}, {"measurement": "maximum velocity Vmax of transport", "setting": "[6]; wild-type, 4 min, 30° C.", "result": "0.98±0.48", "unit": "pmol/min×10^7 cells"}, {"measurement": "Km", "setting": "[7]", "result": "7.45 ± 1.98", "unit": "µM"}, {"measurement": "Vmax of transport", "setting": "[7]", "result": "0.76±0.21", "unit": "pmol/min/10^7 cells"}, {"measurement": "IC50", "setting": "[8]", "result": "~16", "unit": "nM"}, {"measurement": "cellular accumulation ratio (CAR)", "setting": "[9]", "result": "~500"}]}
{"molecule": "Amphotericin B", "values": [{"measurement": "half-life", "setting": "[10]; IV infusion", "result": "about 2 weeks"}, {"measurement": "renal impairment, share of patients", "setting": "[10]; patients", "result": 80, "unit": "%"}]}
